# Measurements taken from ChEMBL document CHEMBL4428113, “Antitubercular and cytotoxic tigliane-type diterpenoids from Croton tiglium” (Bioorg Med Chem Lett, 2016).
# Assays:
# [1] = system: A549; assay: Cytotoxicity against human A549 cells after 72 hrs by CCK8 assay; type: functional, cell-based; conditions: A549, 72 h
# [2] = system: Mycobacterium tuberculosis; assay: Antitubercular activity against Mycobacterium tuberculosis H37Ra incubated for 7 days by Alamar blue dye-based fluorometric assay; type: functional, organism-based; conditions: 168 h
# [3] = system: Huh-7; assay: Cytotoxicity against human HuH7 cells after 72 hrs by CCK8 assay; type: functional, cell-based; conditions: Huh-7, 72 h
# [4] = system: K562; assay: Cytotoxicity against human K562 cells after 72 hrs by CCK8 assay; type: functional, cell-based; conditions: K562, 72 h
SMILES,IC50 [1] [µM],IC50 [2] [µM],IC50 [3] [µM],IC50 [4] [µM]
C/C=C(\C)C(=O)O[C@@H]1[C@@H](C)[C@]2(O)[C@@H]3C=C(C)C(=O)[C@@H]3CC(CO)=C[C@H]2[C@@H]2C(C)(C)[C@]12OC(C)=O,8.5,20.5,3.36,0.07
CCC(C)C(=O)O[C@@]12[C@H](O)[C@@H](C)[C@@]3(O)[C@H]([C@@H]1C2(C)C)[C@@H](O)C(CO)=C[C@]1(O)C(=O)C(C)=C[C@@H]31 (some centres not stated),8.86,> 30,11.6,0.07
CCC(C)C(=O)O[C@@]12[C@H](O)[C@@H](C)[C@@]3(O)[C@@H](C=C(CO)C[C@]4(O)C(=O)C(C)=C[C@@H]34)[C@@H]1C2(C)C (some centres not stated),43.5,> 30,34.2,0.05
C/C=C(\C)C(=O)O[C@@H]1[C@@H](C)[C@]2(O)[C@@H]3C=C(C)C(=O)[C@@H]3CC(C=O)=C[C@H]2[C@@H]2C(C)(C)[C@]12OC(C)=O,6.88,19.5,3.85,0.03
C/C=C(\C)C(=O)O[C@@H]1[C@@H](C)[C@@]2(O)[C@@H](C(=O)C(CO)=C[C@]3(O)C(=O)C(C)=C[C@@H]23)[C@@H]2C(C)(C)[C@]12OC(=O)C(C)C,3.11,13.4,4.41,0.05
CCC(C)C(=O)O[C@@]12[C@H](O)[C@@H](C)[C@@]3(O)[C@@H](C(=O)C(CO)=C[C@]4(O)C(=O)C(C)=C[C@@H]34)[C@@H]1C2(C)C (some centres not stated),6.33,20.9,20.9,0.03
NNC(=O)c1ccncc1 [ISONIAZID],,2.04,,
CC(=O)O[C@H]1C(=O)[C@@]2(C)[C@H]([C@H](OC(=O)c3ccccc3)[C@]3(O)C[C@H](OC(=O)[C@H](O)[C@@H](NC(=O)c4ccccc4)c4ccccc4)C(C)=C1C3(C)C)[C@]1(OC(C)=O)CO[C@@H]1C[C@@H]2O [PACLITAXEL],1.92,,6.75,3.21
CC1=C[C@H]2[C@@]3(O)[C@H](C)[C@@H](O)[C@]4(O)[C@H]([C@@H]3C=C(CO)C[C@]2(O)C1=O)C4(C)C [PHORBOL],15.3,> 30,5.93,0.1
